How the values were obtained:
[1] = target: T1, AGE-BSA (Bos taurus, UniProt P02769); assay: In-vitro screening for AGE-breaking activity (AGE-BSA incubated with compound; ELISA / gel permeation chromatography); assay type: biochemical, bovine; details: 37° C., 24 hours
T1 construct: Bovine serum albumin (fraction V) (BSA); from tissue; host or cells: bovine serum (fraction V); own knowledge: fraction V is the albumin fraction of plasma/serum
Protocol: Fluorescence was used as the criteria to monitor the increased AGE formation.
160 mg/ml of protein, bovine serum albumin, BSA and 1.6M glucose sugar were dissolved in phosphate buffered saline, PBS. Sodium azide was added at 0.02% concentration as a preservative. The solution was filtered asceptically through a […] filter and kept for aging at 37° C. for 16 weeks. After 16 weeks the solution was dialyzed against PBS, aliquoted and stored at −20° C.
To determine the AGE breaking activity, 10 μg/ml of the 16 weeks AGE-BSA was incubated with different concentrations of the test compounds at 37° C. for 24 hours and AGE breaking activity of the test compounds by ELISA was determined.
• 1. Different concentrations of 16 weeks AGE-BSA were coated on a microtiter plate as standard. Each concentration is coated in triplicates. • 2. The test samples were coated on microtiter plate at a concentration of 5 ng. to 20 ng per well in triplicates. • 3. The plate was incubated at 37° C. for one hour. • 4. After incubation the plate was washed with PBST (PBS with 0.05% Tween 20). • 5. Blocking with 5% skimmed milk in PBS at 37° C. for one hour was done. • 6. The plate was washed with PBST. • 7. Primary antibody against AGE-BSA was added and the plate is incubated at 37° C. for one hour. • 8. The plate was washed with PBST. • 9. Secondary antibody anti rabbit HRPO (Horse-Radish Per Oxidase) conjugate was added and the plate is incubated at 37° C. for one hour. • 10. The plate was washed with PBST. • 11. Colour development with OPD (orthophenylenediamine dihydrochloride) and hydrogen peroxide was done. • 12. OD (optical density) at (450 nm reading –620 nm reading) was measured after incubation at 37° C. for 15 minutes with Microplate ELISA Reader.
The breaker activity of the compounds were determined by the following formula:
[formula] OD450-620Control=Absorbance of 20 ng AGE-BSA after incubation at 37° C. for 24 hours without test compound. OD450-620Test=Absorbance of 20 ng AGE-BSA after incubation at 37° C. for 24 hours with required concentration of test compound.
Gel Permeation Chromatography based method was used to determine AGE breaking activities of the compounds.
Separation by Gel Permeation Chromatography (GPC) depends on differences in the size, more precisely the hydrodynamic volume, of the proteins in a sample. […] The pores of a column particle are differentially accessible to smaller particles, depending on their size. This volume of the column is called (V1). The total accessible volume (Vt) is the sum of the volume outside the particles (V0) and the volume accessible inside the particles (V1): Vt=V0+Vi Therefore, in a typical Gel Permeation Chromatography (GPC) run, high molecular weight molecules elute at a lower retention time whereas lower molecular weight molecules are retained for longer time. For the purpose of quantification, the area under the curve for the respective molecule is recorded. The same principle has been applied in the in vitro screening of the molecules of instant invention. Highly cross-linked Advanced Glycosylated Endproducts (AGE) were prepared in vitro by incubating Bovine Serum Albumin (BSA) with glucose for a period of 16 weeks. […] The reduction in the area of AGE-BSA incubated in the presence of AGE breaker as compared to that of control AGE BSA (incubated in absence of AGE breaker) gives an estimate of the AGE breaker activity of the drug. In order to check the non-specific activity of the molecule, a similar experiment was repeated with BSA as well. Methodology:
A known concentration of 16-week AGE-BSA was incubated with and without a predetermined concentration of the drug at 37° C. for 24 hours in clean transparent glass test tubes. The solution without drug served as the control and the solution containing the drug was treated as the test sample.
Gel permeation chromatography was performed on equal volumes of control AGE-BSA preparation and solution of AGE-BSA treated with drug. […]

[2] = Free radical scavenging activity on ABTS radical cation; assay type: biochemical
Protocol: This method measures the relative ability of free radical scavenging substances to scavenge the ABTS.^+ i.e. 2,2-Azino-bis-(3-ethyl benzo thiazoline-6-sulfonate) radical cation as compared to a standard amount of standard or free radical scavengers antioxidants. Incubation of ABTS with Peroxidase (metmyoglobin) and hydrogen peroxide results in the production of radical cation ABTS.^+. This species is blue-green in colour and can be detected at 730 nm. Antioxidants or free radical scavengers in the added sample that causes suppression of the color to a degree that is proportional to their concentration.
Preparation of Buffer Solutions: • a. Phosphate Citrate Buffer (pH 5.0): 48.5 ml of 0.1M citric acid with sufficient 0.2M disodium hydrogen phosphate to produce 100 ml. • b. Phosphate Buffer Saline (PBS): Dissolve 40.0 g of NaCl, 1.0 g of KCl, 1.0 g of KH2PO4 and 3.05 g of Na2HPO4 in 1 liter milli-Q water. Dilute 200 ml of above solution to 1 liter with milli-Q water (pH 7.4–7.6).
Preparation of ABTS Stock Solution (2 mM): • 1 tablet (10 mg) was dissolved in phosphate citrate buffer (pH 5.0) to give a 2 mM solution.
Preparation of Horse Radish Peroxidase Working Solution: • 0.1 mg was dissolved in 10 ml of phosphate buffer saline, 1 ml of this solution was diluted to 100 ml with PBS.
Preparation of Hydrogen Peroxide (1.08 mM) Solution: • 12 μl of Hydrogen Peroxide (30% w/v) was diluted to 100 ml with PBS.
Preparation of Drug Solutions: • 0.1 mM of stock solution of the drug was prepared which was serially diluted in PBS to get 0.05 mM, 0.025 mM and 0.0125 mM solutions.
Preparation of ABTS Radical Stock Solution: • To 2 ml of ABTS stock solution, 1 ml of horseradish Peroxidase working solution was added. • As soon as 2 ml of Hydrogen peroxide solution was added to the above solution, blue-green colour of the ABTS radicals appeared. This solution was incubated at 30° C. for 30 min in order to ensure the completion reaction. Make up the volume to 10 ml with PBS.
Preparation of Control Solution: • 900 μl of ABTS radical stock solution were added to an eppendorf tube. To it were added 100 μl of PBS solution.
Preparation of Test Solution: • 900 μl of ABTS radical stock solutions were added to different eppendorf tubes. To it were added 100 μl of various concentrations of drug solution.
Measurement of Absorbance (O.D): • The absorbance of control and test samples was recorded immediately at 730 nm taking PBS as blank.
Calculation: • The percent antioxidant activity was calculated according to the formula: % Antioxidant activity=100−[O.D of test sample/O.D of control×100]

[3] = test system: Maillard reaction in-vitro (BSA, ribose); assay: Test for AGE inhibiting activity (Maillard reaction in-vitro, BSA + ribose, fluorescence); assay type: biochemical, bovine; details: 37° C., 7 days
Protocol: The following method was used to determine the inhibitory effect of the test compounds on Maillard reaction in-vitro. This method is adopted from U.S. Pat. No. 5,514,676 and European Patent No. 0 339 496 A2.
A solution of Bovine Serum Albumin (BSA), ribose and test compound was prepared in Phosphate Buffer Saline (PBS, pH 7.4) so as to have final concentration of BSA and ribose at 10 mg/ml and 500 mM respectively. Addition of compound was done in aseptic conditions. Sodium azide (0.02%) was also added in this solution in order to prevent microbial growth. A separate tube containing BSA, ribose and sodium azide in the same concentration and buffer as above, but without any test compound, was also incubated as positive control. After incubation at 37° C. for 7 days, 40 micro liter sample from each tube was removed and diluted with PBS to have final concentration of BSA at 1 mg/ml. The fluorescence of all the samples was measured at Excitation Maximum of […] and the Emission Maximum of […] using f-MAX Fluorimeter (Molecular Device, USA). In order to study the effect of test compound on fluorescence, freshly prepared compound solution was mixed with previously incubated positive control (i.e. BSA+ribose), so as to achieve same concentration of all the components as that of test samples.
The percent inhibition of test compound was measured as follows:
[formula] Where F3=Fluorescence of BSA+ribose+compound, F4 is fluorescence of incubated (BSA+ribose)+freshly added test compound.

T1 sequence (P02769 25-607): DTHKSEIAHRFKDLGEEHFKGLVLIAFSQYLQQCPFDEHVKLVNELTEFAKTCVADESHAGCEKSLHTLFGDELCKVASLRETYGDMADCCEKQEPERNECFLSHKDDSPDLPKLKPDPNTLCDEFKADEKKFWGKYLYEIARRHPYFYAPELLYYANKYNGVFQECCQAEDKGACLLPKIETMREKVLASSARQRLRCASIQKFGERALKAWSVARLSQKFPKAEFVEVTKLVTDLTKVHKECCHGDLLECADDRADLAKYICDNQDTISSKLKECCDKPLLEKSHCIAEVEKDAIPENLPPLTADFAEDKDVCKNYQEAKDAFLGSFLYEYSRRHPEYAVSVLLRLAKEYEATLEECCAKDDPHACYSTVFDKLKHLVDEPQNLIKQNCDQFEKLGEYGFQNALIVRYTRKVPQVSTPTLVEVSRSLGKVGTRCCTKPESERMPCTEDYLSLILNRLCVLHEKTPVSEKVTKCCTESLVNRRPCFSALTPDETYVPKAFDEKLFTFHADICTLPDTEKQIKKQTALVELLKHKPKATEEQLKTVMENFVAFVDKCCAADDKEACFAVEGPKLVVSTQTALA

Row | % Breakage ([1]; 5 mM compound) [%] | Molecule | Relative Free Radical Scavenging Activity (%) on ABTS ([2]; 12.5 μM) [%] | Relative Free Radical Scavenging Activity (%) on ABTS ([2]; 25.0 μM) [%] | Relative Free Radical Scavenging Activity (%) on ABTS ([2]; 50.0 μM) [%] | Relative Free Radical Scavenging Activity (%) on ABTS ([2]; 100.0 μM) [%] | % Inhibition (Day 7) ([3]; 1.25 mM compound) [%] | % Breakage ([1]; 10 mM compound) [%] | % Inhibition (Day 7) ([3]; 10 mM compound) [%] | % Inhibition (Day 7) ([3]; 5 mM compound) [%] | % Inhibition (Day 7) ([3]; 2.5 mM compound) [%]
1 | 76.84 | O=C(C[n+]1cccc(-c2cc(Cc3ccccc3)nn2-c2ccccc2)c1)c1cccs1.[Cl-] [Compound 11, 1-(2-Thien-2′-yl-2-oxoethyl)-3-[(1-phenyl-3-phenylmethyl)pyrazol-5-yl]-pyridinium chloride] | 26.78 | 45.74 | 70.61 | 86.46 | 32.9 |  |  |  | 
2 |  | 1-(2-Thien-2′-yl-2-oxoethyl)-3-[(1-cyclohexyl-3-(3,5-dimethylpyrazol-1-yl)methyl)pyrazol-5-yl]pyridinium chloride [Compound 35] | 28.27 | 39.78 | 58.34 | 74.36 |  | 66.66 | 73.8 |  | 
3 |  | O=C(C[n+]1cccc(-c2cc(COc3ccccc3)nn2-c2ccccc2)c1)c1ccccc1.[Cl-] [Compound 34, 1-(2-Phenyl-2-oxoethyl)-3-[(1-phenyl-3-phenoxymethyl)pyrazol-5-yl]pyridinium chloride] | 13.2 | 19.08 | 26.39 | 29.40 |  | 100.0 |  | 60 | 
4 |  | Cc1cc(C)n(Cc2cc(-c3ccc[n+](CC(=O)c4cc([N+](=O)[O-])cs4)c3)n(C3CCCCC3)n2)n1.[Br-] [Compound 27, 1-(2-(4-nitro-2-thienyl)-2-oxoethyl)-3-[(1-cyclohexyl-3-(3,5-dimethylpyrazol-1-yl)-methyl)pyrazol-5-yl]pyridinium bromide] | 16.16 | 27.12 | 39.05 | 51.04 |  | 86.98 |  |  | 
5 |  | O=C(C[n+]1cccc(-c2cc(COc3ccccc3)nn2-c2ccccc2)c1)c1cccs1.[Cl-] [Compound 29, 1-(2-Thien-2′-yl-2-oxoethyl)-3-[(1-phenyl-3-phenoxymethyl)pyrazol-5-yl]pyridinium chloride] | 31.82 | 46.84 | 58.84 | 55.22 |  |  |  | 55.22 | 
6 |  | O=C(C[n+]1cccc(-c2cc(-c3ccc[n+](CC(=O)c4cccs4)c3)[nH]n2)c1)c1cccs1.[Br-].[Br-] [Compound 10, 3,5-Bis-[1-(2-thien-2′-yl-2-oxoethyl)-pyridinium-3-yl]-pyrazole dibromide] | 41.01 | 72.97 | 85.75 | 87.04 |  |  |  |  | 75
7 |  | Cc1cc(C)n(Cc2cc(-c3ccc[n+](CC(=O)c4cccs4)c3)n(-c3ccccn3)n2)n1.[Br-] [Compound 6, 1-(2-Thien-2′-yl-2-oxoethyl)-3-[3{(3,5-dimethylpyrazol-1-yl)methyl-1-(2-pyridyl)}pyrazol-5-yl]pyridinium bromide] | 21.99 | 40.56 | 61.68 | 81.04 |  |  | 66 |  | 
8 |  | Cc1ccc(C(=O)C[n+]2cccc(-c3cc(Cc4ccccc4)n[nH]3)c2)s1.[Cl-] [Compound 12, 1-(2-(5-Methyl-2-Thienyl)-2-oxoethyl)-3-[(3-phenylmethyl)pyrazol-5-yl]pyridinium chloride] | 22.34 | 40.97 | 71.47 | 84.62 |  | 89.23 |  |  | 

Reference: patent US7223777B2, “Compounds for the management of aging-related and diabetic vascular complications, process for their preparation, therapeutic and cosmetic uses thereof” (Torrent Pharmaceuticals Ltd., priority 2001, dated 2007)
